# Test results: US20160303156A1 (priority 2014, published 2016)
# Where a name gives a salt, the structure may show the parent alone. Marks after values point to notes of the source that are not given here.
# What was measured:
# [1] = system: excretion of phenol red (secretory function of the respiratory tract); assay: Effect on excretion of phenol red in mice; assay type: in vivo, Kunming mice; details: for Phenol red concentration: oral gavage 2 days, trachea wash 30 min after i.p. phenol red, n = 10
# Protocol: Kunming mice, female:male 1:1, weight 30-40 g, available from Guangdong Medical Laboratory Animal Center. […] Hitachi 3010 UV and visible spectrophotometer. […] After 30 min, the mice were sacrificed, and the trachea was detached. A section of the trachea from the thyroid cartilage to a branch of the trachea was excised, and placed in a test tube containing 3 ml of saline, to which 0.1 ml of a 15% sodium bicarbonate solution was then added. After centrifugation, the supernatant was taken and measured for the OD value at 546 nm. The phenol red content was calculated from a phenol red standard curve.
# [2] = system: citric acid induced cough; assay: Inhibition on citric acid induced cough in guinea pig; assay type: in vivo, Hartley guinea pigs
# Protocol: 1.1 Test animals: qualified Hartley guinea pigs, weight 250-300 g, female:male 1:1, available from Guangdong Medical Laboratory Animal Center.
# 1.3 Instrument: YLS-8A cough and asthma inducing instrument (a product available from Equipment Station of Shandong Academy of Medical Sciences).
# The guinea pigs in each group were administered by oral gavage at a dosage of 0.5 ml/100 g of body weight, and equal volume of saline was given to the animals in the blank control group. 1 h after administration by oral gavage, the animals received spray of citric acid for 7 min. After the spray was completed, the cough counts were observed and recorded in ten minutes from the start of the spray (the typical cough is loud and clear and often accompanied by a forward rush).
# [3] = system: ovalbumin induced atopic cough (cough variant asthma); assay: Capsaicin induced cough in ovalbumin induced atopic cough (cough variant asthma) model; assay type: in vivo, Hartley guinea pig; details: ovalbumin-challenged guinea pigs, 7 days dosing, 50 μmol/L capsaicin 1 hr after last dose, coughs in 10 min, n = 10
# Protocol: (§1) 2.2 Modeling: except for the normal control group, the guinea pigs in the remaining groups were challenged by intraperitoneally injecting cyclophosphamide at a dosage of 30 mg/kg at day 1, intraperitoneally injecting 1 mL of a suspension containing 2 mg ovalbumin and 100 mg aluminium hydroxide at day 3, and injecting 1 mL of a suspension containing 0.01 mg ovalbumin and 100 mg aluminium hydroxide after 3 weeks. The guinea pigs in the normal control group were intraperitoneally injected with 1 mL of saline. After 3 weeks, all the animals for modeling were challenged by nebulization of a 1% ovalbumin solution for 90 s, and the animals in the normal control group inhaled saline for 90 s by nebulization.
# (§2) The cough of guinea pig were counted as follows. 1 hr after the last dose, the guinea pigs were placed in a Buxco cough recorder, and induced to cough by using 1 mL of 50 μmol/L capsaicin, and the cough counts in 10 min (including the nebulization time) were recorded.
# [4] = system: acemecholine (MeCh) induced airway hyperresponsiveness; assay: Airway responsiveness (Penh) under MeCh challenge in ovalbumin cough variant asthma model; assay type: in vivo, Hartley guinea pig; details: Penh % relative to normal saline challenge, n = 10
# Protocol: as §1, §2
# 2.4 Determination of airway responsiveness (AR) in guinea pig: 24 hrs after cough determination, the enhanced pause (Penh) of guinea pig was determined in the Buxco whole body plethysmograph, and the variation in Penh after challenge by nebulization of acemecholine (MeCh) was measured.
# The acemecholine (MeCh) concentrations used for challenging were respectively, from low to high, 100 mg/L, 200 mg/L, 400 mg/L, 800 mg/L, and 1600 mg/L. The average Penh upon challenge with each level of MeCh was recorded, and converted into percentages (Penh %) relative to the Penh value upon challenge with normal saline (NS), which was used as an evaluation criterion for AR.
# [5] = system: inflammatory cells in bronchial alveolar lavage fluid; assay: Differential leukocyte counts in bronchial alveolar lavage fluid, ovalbumin cough variant asthma model; assay type: in vivo, Hartley guinea pig; details: BALF
# Protocol: as §1, §2
# 2.5 Bronchoalveolar lavage and differential leukocyte counts in bronchial alveolar lavage fluid (BALF): After AR determination, the guinea pigs were anesthetized with 30 mg/kg of pentobarbital sodium. Then, the neck skin was cut, and a median incision was made on the trachea, in which a tracheal cannula was inserted. Bronchoalveolar lavage was performed with 5 mL of saline. This was repeated 3 times, and the bronchial alveolar lavage fluid was collected. All the bronchial alveolar lavage fluid was centrifuged at 4° C. and 1500 rpm for 10 min, and the supernatant was stored at −80° C. for later use.
# [6] = Effect of naringin in combination with other drugs; details: used in combination with naringin
compound,measurement,setting,value
"Nc1c(Br)cc(Br)cc1CN[C@H]1CC[C@H](O)CC1 [Ambroxol, ambroxol]",Phenol red concentration,[1],1.55 ± 0.46 ^ μg/ml
"C[C@@H]1O[C@@H](O[C@H]2[C@H](Oc3cc(O)c4c(c3)O[C@H](c3ccc(O)cc3)CC4=O)O[C@H](CO)[C@@H](O)[C@@H]2O)[C@H](O)[C@H](O)[C@H]1O [Naringin, naringin]",Cough relieving effect (in words),[2]; citric acid induced cough,obvious cough relieving effect
same,Cough count,"[2]; oral gavage, citric acid spray 7 min 1 h after dosing, coughs in ten minutes, n = 8",22.4 ± 3.7 ^
same,Effect on excretion of phenol red / sputum reducing effect (in words),[1],obviously enhance the excretion of phenol red
same,Phenol red concentration,[1],1.64 ± 0.67 ^ μg/ml
same,Cough counts,[3],12.9 ± 4.3 ^
same,Airway responsiveness under challenge with MeCh,[4]; MeCh 100 mg/L,276 ± 69
same,Airway responsiveness under challenge with MeCh,[4]; MeCh 200 mg/L,783 ± 147
same,Airway responsiveness under challenge with MeCh,[4]; MeCh 400 mg/L,857 ± 108
same,Airway responsiveness under challenge with MeCh,[4]; MeCh 800 mg/L,1636 ± 169
same,Airway responsiveness under challenge with MeCh,[4]; MeCh 1600 mg/L,2749 ± 253
same,"Reduction of total leukocyte, lymphocyte, neutrophil and eosinophil counts (in words)",[5],significantly reduce
same,Lymphocyte counts,"[5]; guinea pigs, n = 10",21.5 ± 3.7** 10^7/L
same,Neutrophil counts,"[5]; guinea pigs, n = 10",30.1 ± 6.5** 10^7/L
same,Total leukocyte counts,"[5]; guinea pigs, n = 10",135.5 ± 28.6** 10^7/L
CN1CCCC(n2nc(Cc3ccc(Cl)cc3)c3ccccc3c2=O)CC1 (centres unmarked) [azelastine hydrochloride],Synergistic effect in combination with naringin,[6],no synergistic effect
CN(C)CCC(c1ccc(Cl)cc1)c1ccccn1 (centres unmarked) [chlorpheniramine maleate],Synergistic effect in combination with naringin,[6],no synergistic effect
Clc1ccc2c(c1)CCc1cccnc1C2=C1CCNCC1 [desloratadine],Synergistic effect in combination with naringin,[6],no synergistic effect
NC1=NCC2c3ccccc3Cc3ccccc3N12 (centres unmarked) [epinastine hydrochloride],Synergistic effect in combination with naringin,[6],no synergistic effect
CCOC(=O)N1CCC(=C2c3ccc(Cl)cc3CCc3cccnc32)CC1 [loratadine],Synergistic effect in combination with naringin,[6],no synergistic effect
CN(c1nccc(=O)[nH]1)C1CCN(c2nc3ccccc3n2Cc2ccc(F)cc2)CC1 [mizolastine],Synergistic effect in combination with naringin,[6],no synergistic effect
dimenhydrinate hydrochloride,Synergistic effect in combination with naringin,[6],no synergistic effect
theohydramine hydrochloride,Synergistic effect in combination with naringin,[6],no synergistic effect
